From patent publication US20260374818A1, “CATIONIC PEPTIDES WITH BROAD SPECTRUM ACTIVITY” (priority 2023, published 2026) come the findings set out here.

Data set [1] deals with N/TERT keratinocytes. The experiment in a line: Cytotoxicity (LDH release), N/TERT keratinocytes. Background: LDH in the medium is a marker of cell lysis.
In data set [2] the test system is human bronchiolar epithelial cells (HBEs). The experiment in a line: Cytotoxicity (LDH release), human bronchiolar epithelial cells.
Data set [3] deals with MRSA biofilms on Ker-CT epidermal skin. The experiment in a line: Skin organoid biofilm model, AB103-D loaded Medvance foam dressing, MRSA. In kind it is cell-based, methicillin resistant Staphylococcus aureus.
The test system of data set [4] is S. epidermidis biofilms on Ker-CT epidermal skin. The experiment in a line: Skin organoid biofilm model, AB103-D loaded Medvance foam dressing, S. epidermidis. It counts as cell-based, Staphylococcus epidermidis.
The test system of data set [5] is MRSA USA 300 LAC biofilms. As to the kind of experiment: Checkerboard biofilm synergy of AB103-D with antimicrobials, MRSA. In kind it is cell-based, methicillin resistant Staphylococcus aureus.
The subject of data set [6] is P. aeruginosa LESB58 biofilms on Ker-CT epidermal skin. As to the kind of experiment: Skin organoid biofilm model, AB103-D loaded Medvance foam dressing, P. aeruginosa LESB58. In kind it is cell-based, Pseudomonas aeruginosa.
Data set [7] deals with S. aureus USA300 (MRSA) wound biofilms. As to the kind of experiment: Porcine dermal biofilm wound infection model, MRSA. It counts as in vivo, porcine; methicillin resistant Staphylococcus aureus. The note with it: compared with ciprofloxacin, mupirocin. An excerpt: (§1) . Peptide (PEP1=DJK5; PEP3=AB103-D) solutions were used to hydrate Puracol® resorbable dressings made of collagen either alone or in the presence of antibiotic (ABX1=ciprofloxacin). Briefly, partial thickness wounds (10 mm×7 mm×1 mm deep) were created on the backs of the animals then infected with log-phase cultures of bacteria and allowed biofilms to form for 24-hrs. Dressings were applied to infected wounds of either MRSA S. aureus USA300 (FIG. 6A) or P. aeruginosa 27312 (FIG. 6B) as either a single treatment (day 1) or twice treated (Day 1 and 4) and all wounds were excised on day 7 for CFU renumeration. The amount of peptide applied in all treatments was 10 mg while 1 mg of ciprofloxacin was used in and treatment containing antibiotic. Mupirocin and silver sulfadiazine (SSD) were used as positive controls.
(§2) In vivo porcine dermal biofilm model: Peptide loaded dressings were evaluated using a porcine dermal biofilm infection model as described previously [Davis, S. C., et al. (2018). The wound-healing effects of a next-generation anti-biofilm silver Hydrofiber wound dressing on deep partial-thickness wounds using a porcine model. International Wound Journal, 15(5), 834-839]. Briefly, partial thickness wounds (10 mm×7 mm×1 mm deep) were created on the backs of the animals then infected with log-phase cultures of bacteria and allowed biofilms to form for 24-hrs. […]

The test system of data set [8] is P. aeruginosa biofilms on N/TERT epithelial skin. The experiment in a line: Skin organoid biofilm model, peptide-loaded collagen dressings, P. aeruginosa. It counts as cell-based, Pseudomonas aeruginosa. The note with it: compared to DJK-5 and ciprofloxacin.
Data set [9] has as its system peripheral blood mononuclear cells (PBMCs). The experiment in a line: Cytotoxicity (LDH release), PBMCs.
Data set [10] relates to MRSA biofilms on N/TERT epithelial skin. The experiment in a line: Skin organoid biofilm model, peptide-loaded collagen dressings, MRSA. In kind it is cell-based, methicillin resistant Staphylococcus aureus. The note with it: compared to DJK-5 and ciprofloxacin.
For data set [11], the system named is 3-day-old oral plaque biofilms. As to the kind of experiment: Oral plaque biofilm model, brief (1 minute) exposure, dead cell volume. The note with it: 10 μg/ml, 1 minute once or three times, compared to DJK5. It counts as cell-based.
The subject of data set [12] is P. aeruginosa PAO1 biofilms. As to the kind of experiment: Checkerboard biofilm synergy of AB103-D with antimicrobials, PAO1. It counts as cell-based, Pseudomonas aeruginosa.
The test system of data set [13] is 3-day-old oral plaque (multispecies) biofilms. As to the kind of experiment: Oral plaque biofilm model, long-term (1-3 days) exposure, dead cell volume. In kind it is cell-based.
Data set [14] concerns 3-day-old oral plaque biofilms. As to the kind of experiment: Plaque biofilms treated with oral rinse solutions for 14 days. In kind it is cell-based. The note with it: 0.12% CHX+10 μg/mL peptide, twice daily. The procedure: Briefly, after the formation of a 3-day-old biofilm, HA disks were rinsed in PBS for 1 minute and assigned to one of five treatment groups: (i) sterile water, (ii) Listerine Total Care Mouthwash (Johnson & Johnson Inc., Canada), (iii) GUM Paroex Mouthwash (Sunstar, USA), (iv) 0.12% CHX+10 μg/mL of peptide DJK-5, and (v) 0.12% CHX+10 μg/mL of peptide AB103-D. For each treatment, the disks were treated twice each day (i.e. at 8 am and […] for the first and second time, respectively). Treatment consisted of a droplet of 40 μl of each solution spread on the surface of the biofilm for 1 minute, followed by rinsing with PBS for 1 minute and then placing the disk back into the 24-well plates under anaerobic conditions at 37 °C. On the 0, 1st, 3rd, 7th, 10th, and 14th day, three disks from each group were collected for confocal microscopy analysis. Biofilms were stained with fluorescent dyes SYTO-9 and propidium iodide, which stain live cells green and dead cells red, respectively. The scale bar represents 200 μm. […]. […] The results indicated improved antibiofilm effects of AB103-D on 3-day-old oral plaque biofilms compared to treatment by various oral rinse solutions for 14 days.

Data set [15] concerns ESKAPEE Pathogens.
For data set [16], the system named is MRSA biofilms on human skin organoid. The experiment in a line: Skin organoid biofilm infection model, peptide solution, MRSA. In kind it is cell-based, methicillin resistant Staphylococcus aureus. The note with it: peptide solution 4 hrs (FIG. 3A).
The test system of data set [17] is P. aeruginosa 27312 wound biofilms. The experiment in a line: Porcine dermal biofilm wound infection model, P. aeruginosa. It counts as in vivo, porcine; Pseudomonas aeruginosa. The note with it: compared with ciprofloxacin, silver sulfadiazine.
Description: as §1, §2

Structures are written as SMILES. Where a SMILES comes first, the peptide text is derived from it. [ ]: non-standard residue; d: D form.

Turning to `CC[C@@H](C)[C@@H](NC(=O)[C@@H](C)NC(=O)[C@@H](CCCNC(=N)N)NC(=O)[C@@H](Cc1c[nH]c2ccccc12)NC(=O)[C@@H](CCC(N)=O)NC(=O)[C@H](NC(=O)[C@@H](CCCNC(=N)N)NC(=O)[C@H](NC(=O)[C@H](NC(=O)[C@@H](CCCNC(=N)N)NC(=O)[C@H](NC(=O)[C@H](N)CCCNC(=N)N)C(C)C)C(C)C)[C@H](C)CC)C(C)C)C(N)=O` [AB103-D, rvrvirvqwrai-NH2] (H-[dR][dV][dR][dV][dI][dR][dV][dQ][dW][dR][dA][dI]-NH2), the “Cytotoxicity (LDH)” value in data set [1], in data set [2] and in data set [9] was “low toxicity” each time. In addition, the “Bacterial burden on organoid skin, loaded bandage” value in [3], in data set [4] and in data set [6] was “effectively reduce the bacterial burden” throughout. For the same compound, the “Synergy with several other antimicrobials” value in [5] (MRSA USA 300 biofilms) and in data set [12] (PAO1 biofilms) was “proved synergistic with several other antimicrobials” throughout. For the same compound, the “MBIC of AB103-D alone” value in data set [5] (MRSA, 10% TSB + 0.1% glucose, at least 70% reduction of biofilm biomass) was found to be 1 µg/mL; in data set [12] (PAO1, BM2 minimal media, at least 70% reduction of biofilm biomass), 2 µg/mL. The “Efficacy in porcine skin infection” value is listed as “worked as well or better than ciprofloxacin, mupirocin (for MRSA)” in data set [7] and “worked as well or better than ciprofloxacin, mupirocin (for MRSA) or silver sulfadiazine (for P. aeruginosa)” in data set [17]. For the same compound, the “Antibiofilm activity from collagen dressing” value in [8] is “clearly superior activity to both DJK-5 and ciprofloxacin”; in data set [10], “clearly superior activity to both DJK-5 and ciprofloxacin”. Besides, the “Killing of 3-day-old oral plaque biofilms” value in data set [11] was “significantly more effective than DJK5”. Moreover, the “Proportion of dead biofilm cells” value was “superior to DJK5 at killing bacteria cells” in data set [13] (10 μg/ml, daily for 3 days, compared to DJK5 (FIG. 16A)); “killed more of the biofilm cells” in data set [13] (1 or 5 μg/ml, daily for 3 days, compared to DJK5 (FIG. 16A)); “killed more biofilm cells than DJK5” in [13] (all three concentrations, one day (FIG. 16C)); “killed more biofilm cells than DJK5” in [13] (all three concentrations, two days (FIG. 16B)). In addition, the “Proportion of dead bacteria within the biofilm” value in [14] was “more effective than DJK5”. For the same compound, the Residual plaque biovolume entry in [14] is given as “superior than DJK5”. In [15], the “Broad spectrum antibiofilm activity, more active than DJK5” value is on record as 2-4 fold. The “Antibiofilm activity on skin organoid” value in data set [16] is on record as “excellent antibiofilm activity”.
